Reference: patent publication US20240108702A1, “Use Of Naturally Occurring Cyclic Peptides For Treatment Of SARS-COV-2 Infection” (The University of Southern California, priority 2021, published 2024)
Where a SMILES comes first, the peptide text is derived from it. Bridges are numbered along the chain shown (N, C = ends).

What was measured:
in vivo = conditions: both, cynomolgus monkey, iv
[1] = Interspecies allometric scaling to predict human PK and human equivalent dose
Method: Interspecies allometric scaling: Single-dose PK data from mice, rats, cynomolgus monkeys, and a vervet was used to predict human PK parameters using simple allometry. The relationship between CL or Vss obtained from the NCA, and the body weight was described using the following equation: Y=a·BW^b, where Y is the PK parameter (e.g., CL or Vss), BW is the bodyweight of the species, a is an allometric coefficient, and b is an allometric exponent. Linear regression was performed on log-transformed data. The predicted human equivalent dose was calculated based on the allometrically scaled clearance using the following equation: Dose=CL*AUC0-∞. The corresponding average AUCτ and AUC0-∞ at NOAEL and LOAEL, respectively, were used to convert the doses at NOAEL and LOAEL in preclinical animals to HED.

For `CC[C@H](C)[C@@H]1NC(=O)[C@@H]2CSSC[C@H](NC(=O)[C@H](CCCNC(=N)N)NC(=O)[C@@H]3CSSC[C@H](NC1=O)C(=O)N[C@@H]([C@@H](C)O)C(=O)N[C@@H](CCCNC(=N)N)C(=O)NCC(=O)N[C@@H](Cc1ccccc1)C(=O)N3)C(=O)N[C@@H](CC(C)C)C(=O)N[C@H]1CSSC[C@H](NC(=O)[C@H](C(C)C)NC(=O)CNC(=O)[C@H](CCCNC(=N)N)NC(=O)[C@H](CCCNC(=N)N)NC1=O)C(=O)N[C@@H](CCCNC(=N)N)C(=O)N2` [Peptide 1] (cyclo(GFCRCLCRRGVCRCICTR); disulfide 3-16, 5-14, 7-12), the NOAEL at 10 days (in vivo) was 15 mg/kg/day, the “HED equivalent to NOAEL in cynomolgus monkeys” value ([1]; 70 kg individual) was 15.9 mg/kg and the “HED equivalent to NOAEL in rats” value ([1]; 70 kg individual) was 3.1 mg/kg. The “predicted human Vss” value ([1]; adult 70 kg, simple allometry) was 28.0 L.
